Patent US20260001928A1 (CORTERIA PHARMACEUTICALS, priority 2022, published 2026)
*1 amine or outer side, *2 acyl side, *3 side chain or, on linkers, in order; H or OH if unused. Where a SMILES comes first, the peptide text is derived from it. Side-chain parts run from the residue outwards. [ ]: non-standard residue; d: D form. The star is where a group is joined. C18 diacid = O=C(O)CCCCCCCCCCCCCCCCC(=O)*; C16 diacid = O=C(O)CCCCCCCCCCCCCCC(=O)*; γGlu = O=C(O)[C@H](CCC(=O)[*:2])N[*:1]; Nva = CCC[C@H](N)C(=O)O; AEEA = NCCOCCOCC(=O)O; Aib = CC(C)(N)C(=O)O

Experiments:
[1] = biological target: T1, human CRF2a receptor (Homo sapiens, UniProt Q13324); assay: Activity at human CRF2a receptor, cAMP functional assay in TeloHEAC cells; type: cell-based; conditions: TeloHEAC cells stably expressing human CRF2a receptor, relative to urocortin 2 (100 nM = 100%)
T1 construct: expressed in transfected cells; host or cells: TeloHEAC cells
T1 sequence (Q13324 1-411): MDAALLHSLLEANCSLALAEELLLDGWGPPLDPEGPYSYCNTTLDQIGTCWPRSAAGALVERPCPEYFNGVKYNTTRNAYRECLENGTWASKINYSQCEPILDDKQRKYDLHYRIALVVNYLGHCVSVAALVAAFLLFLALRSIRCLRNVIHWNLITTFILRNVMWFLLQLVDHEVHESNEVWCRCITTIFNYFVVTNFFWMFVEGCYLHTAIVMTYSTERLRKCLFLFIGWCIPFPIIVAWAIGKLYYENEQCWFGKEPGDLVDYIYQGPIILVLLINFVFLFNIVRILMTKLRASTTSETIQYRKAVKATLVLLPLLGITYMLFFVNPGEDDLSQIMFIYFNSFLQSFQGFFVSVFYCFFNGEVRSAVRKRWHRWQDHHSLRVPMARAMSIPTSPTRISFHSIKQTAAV
Procedure, shortened: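 TeloHEAC cells stably expressing human CRF2a (10000 cells/well) were treated with 16-point 1:2 compound dilutions in HBSS/20 mM HEPES with IBMX for 30 min at 37° C. cAMP was read by HTRF (665/620 nm ratio). EC50 was the concentration giving 50% activation, with 100 nM urocortin 2 set as 100%.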

[2] = biological target: T2, CFR1R receptor (Homo sapiens, UniProt P34998); assay: Activity at anti-target CFR1R receptor, cAMP assay in CRF1R-overexpression CHO-K1 cells; type: cell-based; conditions: 100% = Sauvagine at 100 nM
T2 construct: host or cells: CHO-K1 (clone 2)
T2 sequence (P34998 24-415): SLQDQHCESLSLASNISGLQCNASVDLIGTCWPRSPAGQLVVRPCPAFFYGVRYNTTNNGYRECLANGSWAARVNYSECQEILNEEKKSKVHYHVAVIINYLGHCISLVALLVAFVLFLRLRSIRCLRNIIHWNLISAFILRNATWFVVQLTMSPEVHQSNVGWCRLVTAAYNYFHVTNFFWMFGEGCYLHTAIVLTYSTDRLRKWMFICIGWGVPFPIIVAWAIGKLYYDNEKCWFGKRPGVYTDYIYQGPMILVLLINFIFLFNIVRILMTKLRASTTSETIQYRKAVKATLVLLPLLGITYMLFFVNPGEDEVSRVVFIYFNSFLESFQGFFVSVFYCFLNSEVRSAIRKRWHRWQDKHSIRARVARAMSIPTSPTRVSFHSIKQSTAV
Procedure, shortened: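 Clone 2; cryopreserved stocks (10% DMSO); 4000 cells/well final; 100% activation = Sauvagine 100 nM; otherwise as TeloHAEC protocol.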

For `CCC[C@H](NC(=O)[C@H](CC(N)=O)NC(=O)[C@@H](NC(=O)[C@H](CCC(=O)O)NC(=O)[C@H](C)NC(=O)[C@H](CCC(N)=O)NC(=O)[C@H](CCC(=O)O)NC(=O)[C@H](CCCNC(=N)N)NC(=O)[C@H](CCC(N)=O)NC(=O)[C@H](CCCCN)NC(=O)[C@H](CCCCN)NC(=O)[C@H](CCC(N)=O)NC(=O)[C@H](CCCCN)NC(=O)[C@H](CCC(=O)O)NC(=O)[C@H](CCC(N)=O)NC(=O)[C@H](CCC(=O)O)NC(=O)[C@H](CC(C)C)NC(=O)[C@H](CC(C)C)NC(=O)[C@@H](NC(=O)[C@H](CCCCN)NC(=O)[C@H](CCCCNC(=O)COCCOCCNC(=O)COCCOCCNC(=O)CC[C@H](NC(=O)CCCCCCCCCCCCCCCCC(=O)O)C(=O)O)NC(=O)[C@H](CC(C)C)NC(=O)[C@H](CCCCN)NC(=O)[C@@H](NC(=O)[C@@H]1CCCN1C(=O)[C@H](NC(=O)[C@H](CC(=O)O)NC(=O)[C@H](CC(C)C)NC(=O)[C@H](CO)NC(=O)[C@H](CC(C)C)NC(=O)[C@@H](NC(=O)[C@@H](NC(C)=O)[C@@H](C)CC)C(C)C)C(C)C)[C@@H](C)CC)[C@@H](C)CC)[C@@H](C)O)C(=O)N[C@@H](CCC(N)=O)C(=O)N[C@H](C(=O)N[C@@H](CC(C)C)C(=O)N[C@@H](C)C(=O)N[C@@H](CCC(N)=O)C(=O)N[C@H](C(N)=O)C(C)C)[C@@H](C)CC` [compound 105] (Ac-IVLSLD[dV]PIKLK([AEEA-AEEA-γGlu-C18 diacid])KILLEQEKQKKQREQAETN[Nva]QILAQV-NH2), the EC50 [1] was 0.87 nM, the “Emax (% I)” value [2] was 10 % I and the EC50 ([2]; cAMP) was > 250 nM.

`CC[C@H](C)[C@H](NC(C)=O)C(=O)N[C@H](C(=O)N[C@@H](CC(C)C)C(=O)N[C@@H](CO)C(=O)N[C@@H](CC(C)C)C(=O)N[C@@H](CC(=O)O)C(=O)N[C@@H](C(=O)N1CCC[C@H]1C(=O)N[C@H](C(=O)N[C@@H](CCCCN)C(=O)N[C@@H](CC(C)C)C(=O)N[C@@H](CCCCNC(=O)CC[C@H](NC(=O)CCCCCCCCCCCCCCC(=O)O)C(=O)O)C(=O)N[C@@H](CCC(N)=O)C(=O)N[C@H](C(=O)N[C@@H](CC(C)C)C(=O)N[C@@H](CC(C)C)C(=O)N[C@@H](CCCCN)C(=O)N[C@@H](CCC(N)=O)C(=O)N[C@@H](CCC(=O)O)C(=O)N[C@@H](CCCNC(=N)N)C(=O)N[C@@H](CCC(N)=O)C(=O)N[C@@H](CCCCN)C(=O)N[C@@H](CCCCN)C(=O)N[C@@H](CCC(N)=O)C(=O)N[C@@H](CCCNC(=N)N)C(=O)N[C@@H](CCC(=O)O)C(=O)N[C@@H](CCC(N)=O)C(=O)N[C@@H](C)C(=O)N[C@@H](CCC(=O)O)C(=O)N[C@@H](CCCCN)C(=O)N[C@@H](CC(N)=O)C(=O)NC(C)(C)C(=O)N[C@@H](CCC(N)=O)C(=O)N[C@H](C(=O)N[C@@H](CC(C)C)C(=O)N[C@@H](CCC(=O)O)C(=O)N[C@@H](CCC(N)=O)C(=O)N[C@H](C(N)=O)C(C)C)[C@@H](C)CC)[C@@H](C)CC)[C@@H](C)CC)C(C)C)C(C)C` [compound 16] (Ac-IVLSLD[dV]PIKLK([γGlu-C16 diacid])QILLKQERQKKQREQAEKN[Aib]QILEQV-NH2) was tested, and the EC50 [1] was 0.13 nM and the “Emax (% I)” value [2] was 47 % I.
